Values belong to the molecule of their own block, whether it stands above or below them.
Assays:
Assay type in all cases: cell-based
Candida albicans (CA) [1] = assay: Viability on agar plates (MFC)
Description: (§1) MBSFL oil (converted, 225, BioBee Sde Eliyahu Ltd, lot 0095-0098.181210-181227) was compared to BSFL oil (before conversion, 215, BioBee Sde Eliyahu Ltd, lot 0030.111217), lauric acid 98% (Sigma-Aldrich, denoted LA) and chlorhexidine acetate (Steinberg, denoted CHX), were analyzed as antimicrobial and anti-biofilm-formation agents in vitro, with respect to Pseudomonas aeruginosa (Gram negative, denoted PA01), Staphylococcus aureus (ATCC, American Type Culture Collection) (Gram positive, denoted SA), Streptococcus mutans (ATCC) (Gram positive, denoted SM), Lactobacillus (ATCC) (Gram positive, denoted L), Candida albicans (ATCC) (yeast, denoted CA) and Candida glabrata (ATCC) (yeast, denoted CG).
(§2) Microbial stocks of the Biofilm Research Laboratory were grown from frozen stock: SM at overnight 37° C. in BHI (brain heart infusion) broth medium in an atmosphere of 5% CO2; L at 37° C. in MRS (de Man, Rogosa and Sharpe) broth medium in an atmosphere of 5% CO2; PAO1 and SA at 37° C. in TSB (Trypticase soy broth) medium; CA and CG at 37° C. in RPMI (Roswell Park Memorial Institute) medium.
(§3) BSFL oil and MBSFL oil were prepared in DDW by heating at 100° C. LA was prepared at 50% Ethanol/50% DDW (doubly distillated water) and heated constantly to prevent solidifying in the tube. Maximum concentration of tested agents was the same (2.7% of lauric acid content). CHX was prepared in DDW
(§4) To examine the effects of MBSFL oil on microorganism's viability, equal amounts (5 μl) of bacterial suspension exposed to each tested concentration of agent was plated on agar plates. Plates were incubated overnight at 37° C. Colony growth was recorded as non-affected by agent's viable bacteria. Minimal Bactericidal Concentration (MBC) was recorded as no colony growth. Minimal Fungicidal Concentration (MFC) was recorded as no fungal growth.

Candida glabrata (CG) [2] = assay: Viability on agar plates (MFC)
Description: as §1, §2, §3, §4

Lactobacillus (L) [3] = assay: Viability on agar plates (MBC)
Description: as §1, §2, §3, §4

[4] = test system: Staphylococcus aureus (SA); assay: Viability on agar plates (MBC)
Description: as §1, §2, §3, §4

[5] = test system: Streptococcus mutans (SM); assay: Viability on agar plates (MBC)
Description: as §1, §2, §3, §4

[6] = test system: Pseudomonas aeruginosa (PAO1); assay: Viability on agar plates (MBC)
Description: as §1, §2, §3, §4

Candida albicans (CA) [7] = assay: Planktonic growth, OD 595 nm after 24 h
Description: as §1, §2, §3
(§5) To examine the effects of MBSFL oil on microorganism's growth (planktonic conditions), serial 1:2 dilutions of each tested agent in appropriate medium (BSFL, MBSFL and LA from 2.7 to 0.04%; CHX from 20 μg/ml to 0.3 μg/ml) were prepared in a polystyrene flat-bottomed 96-well microplate. Wells with no compounds and those with bacteria served as positive controls. Wells with no bacteria and with compound served as blanks. An equal volume (100 μl) of the each tested bacterial and fungal suspension at optical density (OD)595=0.02 and 0.05, respectively, was added to each well. After a 24 h incubation, growth was monitored by recording the OD at 595 nm using a Genius plate reader Spectrophotometer (Tecan). The assay was performed in triplicates.

Lactobacillus (L) [8] = assay: Planktonic growth, OD 595 nm after 24 h
Description: as §1, §2, §3, §5

[9] = test system: Staphylococcus aureus (SA); assay: Planktonic growth, OD 595 nm after 24 h
Description: as §1, §2, §3, §5

Candida glabrata (CG) [10] = assay: Planktonic growth, OD 595 nm after 24 h
Description: as §1, §2, §3, §5

[11] = test system: Streptococcus mutans (SM); assay: Planktonic growth, OD 595 nm after 24 h
Description: as §1, §2, §3, §5

Candida albicans (CA) [12] = assay: Biofilm formation, crystal violet staining; conditions: 24 h
Description: as §1, §2, §3
(§6) To examine the effects of MBSFL oil on biofilm formation by the microorganisms, assays for all of the tested agents were performed as described above except of growth medium used which was MRS/BHI supplemented with 1% sucrose and TSB/RPMI supplemented with 1% glucose. After incubation for 24 h, spent media and free-floating bacteria/fungi were removed by gentle aspiration and the wells were washed twice with phosphate-buffered saline (PBS, pH 7.4). The biofilm was then quantified by crystal violet staining. Briefly, 0.02% crystal violet was added into wells for 45 min, which were then washed twice with DDW to remove unbound dye. After adding 200 μl of 30% acetic acid into each well, the plate was shaken for 10 min to release the dye and the biofilm was quantified by measuring the absorbance at 595 nm using a Genius plate reader Spectrophotometer (Tecan). Assay was performed in triplicates.

[13] = test system: Staphylococcus aureus (SA); assay: Biofilm formation, crystal violet staining; conditions: 24 h
Description: as §1, §2, §3, §6

Candida glabrata (CG) [14] = assay: Biofilm formation, crystal violet staining
Description: as §1, §2, §3, §6

[15] = test system: Streptococcus mutans (SM); assay: Biofilm formation, crystal violet staining; conditions: 24 h
Description: as §1, §2, §3, §6

[16] = test system: Pseudomonas aeruginosa (PAO1); assay: Biofilm formation, crystal violet staining
Description: as §1, §2, §3, §6

[17] = test system: Pseudomonas aeruginosa (PAO1); assay: Planktonic growth, OD 595 nm after 24 h
Description: as §1, §2, §3, §5

MIC (Candida albicans (CA) [7]): 1.35% | MIC (Lactobacillus (L) [8]): 0.33% | MIC (Candida glabrata (CG) [10]): 2.7% | MIC [11]: 0.33%
SMILES: CCCCCCCCCCCC(=O)O [LA, lauric acid]
Minimal Fungicidal Concentration (MFC) (Candida albicans (CA) [1]): 2.7% | MFC (Candida glabrata (CG) [2]): 2.7% | MBC (Lactobacillus (L) [3]): 0.67% | MBC [4]: 0.67% | MBC [5]: 0.33% | Minimal Bactericidal Concentration (MBC) [6]: exerted MBC/MFC for all tested microbes, except PAO1 | reduction of SA growth ([9]; lowest tested dose of 0.04%): 90% | dose at which biofilm formation was almost totally inhibited (Candida albicans (CA) [12]): 0.67% | dose at which biofilm formation was totally or almost totally inhibited [13]: 0.67% | effect on biofilm formation (in words) (Candida glabrata (CG) [14]): effective against biofilm formation of CG but with less impact | dose of total inhibition of biofilm formation [15]: 0.16% | effect on biofilm formation (in words) ([16]; all concentrations tested): dose-dependently increased biomass

MIC (Lactobacillus (L) [8]): 2.5 µg/mL
SMILES: CC(=O)O.CC(=O)O.NC(=N\CCCCCC/N=C(N)/N=C(\N)Nc1ccc(Cl)cc1)/N=C(\N)Nc1ccc(Cl)cc1 [CHX, chlorhexidine acetate]
MFC (Candida albicans (CA) [1]): 5 µg/mL | MFC (Candida glabrata (CG) [2]): 2.5 µg/mL | MBC (Lactobacillus (L) [3]): 2.5 µg/mL | MBC [4]: 10 µg/mL | MBC [5]: 0.625 µg/mL | MBC [6]: 20 µg/mL | dose inhibiting growth of CA (Candida albicans (CA) [7]): 5 µg/mL | dose inhibiting growth of SA ([9]; planktonic, 24 h): 2.5 µg/mL | dose inhibiting growth of CG (Candida glabrata (CG) [10]): 2.5 µg/mL | dose inhibiting growth of SM [11]: 0.625 µg/mL | dose of total inhibition of PAO1 growth [17]: 10 µg/mL | dose inhibiting biofilm formation (Candida albicans (CA) [12]): 5 µg/mL | dose inhibiting biofilm formation [13]: 2.5 µg/mL | dose inhibiting biofilm formation (Candida glabrata (CG) [14]; 24 h): 2.5 µg/mL | dose inhibiting biofilm formation [15]: 0.625 µg/mL | dose of total inhibition of biofilm formation ([16]; PAO1 biofilm, 24 h): 10 µg/mL
